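Interpolation was linear, between the two tested concentrations surrounding the appropriate level; five concentrations were tested over 48 hours in 96-well plates. Abbreviation: GI50, concentration required for 50% inhibition of growth.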 Calls of active or inactive are those of the source. No stated cut-off is given here; in the data, active = GI50 up to about 1.1 µM and inactive = higher.
Experiments:
Test in all cases: NCI anticancer screen, dose series, 48 h
IGROV-1 = system: IGROV-1
NCI-H23 = system: NCI-H23
TK-10 = system: TK-10
LOX IMVI = system: LOX IMVI
UACC-62 = system: UACC-62
NCI-H226 = system: NCI-H226
786-0 = system: 786-0
ACHN = system: ACHN
COLO 205 = system: COLO 205
OVCAR-3 = system: OVCAR-3
OVCAR-5 = system: OVCAR-5
A498 = system: A498
A549 = system: A549
UACC-257 = system: UACC-257
Hs-578T = system: Hs-578T
MDA-MB-435 = system: MDA-MB-435
NCI/ADR-RES = system: NCI/ADR-RES
MCF7 = system: MCF7

SMILES	GI50 (IGROV-1)	GI50 (NCI-H23)	GI50 (TK-10)	GI50 (LOX IMVI)	GI50 (UACC-62)	GI50 (NCI-H226)	GI50 (786-0)	GI50 (ACHN)	GI50 (COLO 205)	GI50 (OVCAR-3)	GI50 (OVCAR-5)	GI50 (A498)	GI50 (A549)	GI50 (UACC-257)	GI50 (Hs-578T)	GI50 (MDA-MB-435)	GI50 (NCI/ADR-RES)	GI50 (MCF7)
CC(=O)NC1=C(C)C(=O)c2c(nc3n2CCC3O)C1=O (stereo not drawn)	> 54.2 µM (inactive)	35.4 µM (inactive)	> 100 µM (inactive)	29.7 µM (inactive)	20.1 µM (inactive)	27.4 µM (inactive)	43.4 µM (inactive)	> 100 µM (inactive)	> 100 µM (inactive)	10.8 µM (inactive)	> 64.3 µM (inactive)	> 100 µM (inactive)	> 64 µM (inactive)	26.3 µM (inactive)	–	–	–	–
Clc1ccc(C[P+]2(c3ccccc3)CCCCC2)cc1.[O-][Cl+3]([O-])([O-])[O-]	> 100 µM (inactive)	85.5 µM (inactive)	77.8 µM (inactive)	77.3 µM (inactive)	37.2 µM (inactive)	> 100 µM (inactive)	> 100 µM (inactive)	> 100 µM (inactive)	17.9 µM (inactive)	44.7 µM (inactive)	> 100 µM (inactive)	> 100 µM (inactive)	> 100 µM (inactive)	28.2 µM (inactive)	–	–	–	–
C/C(=N\NC(=S)N(C)C)c1ncc[nH]1	2.78 µM (inactive)	2.1 µM (inactive)	13.3 µM (inactive)	3.08 µM (inactive)	2.51 µM (inactive)	–	2.18 µM (inactive)	2.45 µM (inactive)	–	3.36 µM (inactive)	2.55 µM (inactive)	3.94 µM (inactive)	3.38 µM (inactive)	2.92 µM (inactive)	–	–	–	–
O=[N+]([O-])c1cc(C2SCc3nc4ccccc4n32)ccc1Cl (stereo not drawn)	45.9 µM (inactive)	16.1 µM (inactive)	47.5 µM (inactive)	–	18.6 µM (inactive)	25.1 µM (inactive)	34.3 µM (inactive)	27.5 µM (inactive)	22.1 µM (inactive)	25.3 µM (inactive)	14.3 µM (inactive)	18.1 µM (inactive)	33.1 µM (inactive)	22.3 µM (inactive)	–	–	–	–
CC1=C(C(=O)Nc2cc(=O)n(C)c(=O)n2C)C(c2ccc([N+](=O)[O-])cc2)C(C(=O)Nc2cc(=O)n(C)c(=O)n2C)=C(C)N1	> 100 µM (inactive)	> 100 µM (inactive)	> 100 µM (inactive)	54.6 µM (inactive)	26.5 µM (inactive)	49.3 µM (inactive)	84.9 µM (inactive)	68.2 µM (inactive)	> 100 µM (inactive)	> 100 µM (inactive)	> 100 µM (inactive)	> 100 µM (inactive)	> 100 µM (inactive)	86.7 µM (inactive)	–	–	–	–
CCC1CC2C(=O)N(c3ccccc3)C(=O)C2c2[nH]c3ccccc3c21 (stereo not drawn)	6.43 µM (inactive)	71.8 µM (inactive)	31.9 µM (inactive)	17.1 µM (inactive)	19.5 µM (inactive)	11.4 µM (inactive)	18.9 µM (inactive)	20.2 µM (inactive)	22 µM (inactive)	15.7 µM (inactive)	> 100 µM (inactive)	25.4 µM (inactive)	24.6 µM (inactive)	–	–	–	–	–
CCc1ccc(Cc2ccc(CC)c(NC(=O)C(=O)C3NC(=S)NC3=O)c2CC)c(CC)c1NC(=O)C(=O)C1NC(=S)NC1=O (stereo not drawn)	> 100 µM (inactive)	> 100 µM (inactive)	> 100 µM (inactive)	> 100 µM (inactive)	> 100 µM (inactive)	–	> 100 µM (inactive)	> 100 µM (inactive)	> 100 µM (inactive)	> 100 µM (inactive)	> 100 µM (inactive)	> 100 µM (inactive)	> 100 µM (inactive)	> 100 µM (inactive)	–	–	–	–
O=c1[nH]c(=O)n(C2CC(O)C(CO)O2)cc1C#Cc1cc(C(F)(F)F)cc(C(F)(F)F)c1 (stereo not drawn)	> 36.4 µM (inactive)	24.4 µM (inactive)	> 100 µM (inactive)	> 25.5 µM (inactive)	> 25.6 µM (inactive)	> 100 µM (inactive)	–	> 29.4 µM (inactive)	> 21.3 µM (inactive)	> 52.1 µM (inactive)	> 100 µM (inactive)	> 100 µM (inactive)	> 24.7 µM (inactive)	> 37.5 µM (inactive)	–	–	–	–
Cc1cc(S(=O)(=O)O)c(NC(=O)C(=O)C2C=CCS2(=O)=O)cc1Cl (stereo not drawn)	> 100 µM (inactive)	> 100 µM (inactive)	> 100 µM (inactive)	> 100 µM (inactive)	> 100 µM (inactive)	> 100 µM (inactive)	> 100 µM (inactive)	> 100 µM (inactive)	> 100 µM (inactive)	> 100 µM (inactive)	> 100 µM (inactive)	> 100 µM (inactive)	> 100 µM (inactive)	> 100 µM (inactive)	–	–	–	–
COc1cc2c(c(OC(C)=O)c1OC(C)=O)-c1ccc(SC)c(=O)cc1C(NC(C)=O)CC2 (stereo not drawn)	4.45 µM (inactive)	1.92 µM (inactive)	28.7 µM (inactive)	1.13 µM (inactive)	1.12 µM (inactive)	6.87 µM (inactive)	3.87 µM (inactive)	24 µM (inactive)	0.998 µM (active)	0.5 µM (active)	> 50.1 µM (inactive)	4.83 µM (inactive)	3.73 µM (inactive)	1.07 µM (active)	–	–	–	–
CCN(CC)C(=O)c1c(N2CCOCC2)cc(N(CC)CC)oc1=O	> 100 µM (inactive)	> 100 µM (inactive)	> 100 µM (inactive)	> 100 µM (inactive)	> 100 µM (inactive)	> 100 µM (inactive)	> 100 µM (inactive)	> 100 µM (inactive)	> 100 µM (inactive)	> 100 µM (inactive)	–	> 100 µM (inactive)	> 100 µM (inactive)	> 100 µM (inactive)	–	–	–	–
CC(=O)c1cccc(NC(=O)C(=O)C(C(=O)NN)c2ccccc2)c1 (stereo not drawn)	> 100 µM (inactive)	> 100 µM (inactive)	> 100 µM (inactive)	> 100 µM (inactive)	> 100 µM (inactive)	> 100 µM (inactive)	> 100 µM (inactive)	> 100 µM (inactive)	> 100 µM (inactive)	> 100 µM (inactive)	> 100 µM (inactive)	> 100 µM (inactive)	> 100 µM (inactive)	> 100 µM (inactive)	–	–	–	–
CCCc1c[nH]c(-c2ccc(-c3cc(CCC)c(C=O)[nH]3)s2)c1	30.4 µM (inactive)	26.5 µM (inactive)	15.3 µM (inactive)	14 µM (inactive)	16.9 µM (inactive)	18.7 µM (inactive)	14.6 µM (inactive)	19.2 µM (inactive)	–	17 µM (inactive)	–	7.82 µM (inactive)	5.83 µM (inactive)	17.3 µM (inactive)	–	–	–	–
COc1ccc(CNc2nc(NCc3ccc(OC)cc3)nc(NC3CCCC3)n2)cc1	13.4 µM (inactive)	2.99 µM (inactive)	3.26 µM (inactive)	5.78 µM (inactive)	–	5.07 µM (inactive)	4.05 µM (inactive)	4.47 µM (inactive)	3.05 µM (inactive)	2.76 µM (inactive)	3.63 µM (inactive)	–	5.26 µM (inactive)	12 µM (inactive)	3.07 µM (inactive)	1.48 µM (inactive)	2.7 µM (inactive)	3.31 µM (inactive)
Cc1cc(NS(=O)(=O)c2ccc(NC(=O)c3cccc4c(Nc5ccc(S(=O)(=O)N=C(N)N)cc5)c5ccccc5nc34)cc2)no1	> 100 µM (inactive)	> 100 µM (inactive)	> 100 µM (inactive)	> 100 µM (inactive)	> 100 µM (inactive)	> 100 µM (inactive)	> 100 µM (inactive)	> 100 µM (inactive)	> 100 µM (inactive)	> 100 µM (inactive)	> 100 µM (inactive)	> 100 µM (inactive)	> 100 µM (inactive)	> 100 µM (inactive)	–	–	–	–
COC(=O)NN=C1C(C)(C)C(=NNC(=O)OC)C1(C)C	> 100 µM (inactive)	> 48.9 µM (inactive)	> 100 µM (inactive)	> 35.8 µM (inactive)	> 100 µM (inactive)	> 100 µM (inactive)	> 100 µM (inactive)	> 100 µM (inactive)	> 41.6 µM (inactive)	> 100 µM (inactive)	> 100 µM (inactive)	> 100 µM (inactive)	> 100 µM (inactive)	> 100 µM (inactive)	–	–	–	–
CC1(C)CCC[C@@]2(C)C1C[C@H](O)[C@@]1(C)O[C@@](C)([C@H](O)CO)CCC21 (stereo partly drawn)	28.9 µM (inactive)	33.7 µM (inactive)	22.9 µM (inactive)	–	28.6 µM (inactive)	28.7 µM (inactive)	44 µM (inactive)	26 µM (inactive)	25.3 µM (inactive)	29.8 µM (inactive)	39.8 µM (inactive)	20.9 µM (inactive)	36.2 µM (inactive)	33.5 µM (inactive)	–	–	–	–
Cc1ccc(C2=[N+]([O-])c3ccccc3C2=O)cc1	15.7 µM (inactive)	19.2 µM (inactive)	> 31.6 µM (inactive)	16.8 µM (inactive)	17.5 µM (inactive)	46.7 µM (inactive)	24 µM (inactive)	16 µM (inactive)	28.9 µM (inactive)	16.6 µM (inactive)	52.6 µM (inactive)	> 100 µM (inactive)	46.7 µM (inactive)	16.5 µM (inactive)	–	–	–	–
CCn1cc(C(=O)O)c(=O)c2cc(F)c(N3CCNCC3)nc21 [ENOXACIN]	> 100 µM (inactive)	31.1 µM (inactive)	> 100 µM (inactive)	86.3 µM (inactive)	> 100 µM (inactive)	> 100 µM (inactive)	> 100 µM (inactive)	> 100 µM (inactive)	> 100 µM (inactive)	> 100 µM (inactive)	> 100 µM (inactive)	> 100 µM (inactive)	> 100 µM (inactive)	> 100 µM (inactive)	–	–	–	–

From ChEMBL document CHEMBL1201862, “PubChem BioAssay data set” (2004)
